# In patent US20240101521A1, “DIAMINOTRIAZINE COMPOUNDS” (BASF SE, priority 2021, published 2024):
# Experiments:
# Experiment in all cases: greenhouse pre-emergence herbicidal test
# Assay type in all cases: in vivo
# Conditions in all cases: scale 0 to 100
# [1] = test system: Echinochloa crus-galli
# Excerpt: (§1) The culture containers used were plastic flowerpots containing loamy sand with approximately 3.0% of humus as the substrate. The seeds of the test plants were sown separately for each species.
# (§2) For the pre-emergence treatment, the active ingredients, which had been suspended or emulsified in water, were applied directly after sowing by means of finely distributing nozzles. The containers were irrigated gently to promote germination and growth and subsequently covered with transparent plastic hoods until the plants had rooted. This cover caused uniform germination of the test plants, unless this had been impaired by the active ingredients. For the post-emergence treatment, the test plants were first grown to a height of 3 to 15 cm, depending on the plant habit, and only then treated with the active ingredients which had been suspended or emulsified in water. For this purpose, the test plants were either sown directly and grown in the same containers, or they were first grown separately as seedlings and transplanted into the test containers a few days prior to treatment.
# (§3) Depending on the species, the plants were kept at 10-25° C. or 20-35° C., respectively.
# (§4) The test period extended over 2 to 4 weeks. During this time, the plants were tended, and their response to the individual treatments was evaluated.
# (§5) Evaluation was carried out using a scale from 0 to 100. 100 means no emergence of the plants, or complete destruction of at least the aerial moieties, and 0 means no damage, or normal course of growth. A moderate herbicidal activity is given at values of at least 60, a good herbicidal activity is given at values of at least 70, and a very good herbicidal activity is given at values of at least 85.
# (§6) The plants used in the greenhouse experiments were of the following species: […]
# [2] = test system: Setaria faberi
# Excerpt: as §1, §2, §3, §4, §5, §6
# [3] = test system: Abutilon theophrasti
# Excerpt: as §1, §2, §3, §4, §5, §6
# [4] = test system: Amaranthus retroflexus
# Excerpt: as §1, §2, §3, §4, §5, §6
compound,measurement,setting,value
"COc1c(Br)cc(F)c(F)c1Nc1nc(N)nc(C(C)(C)F)n1 [Example 6, N4-(5-Bromo-2,3-difluoro-6-methoxy-phenyl)-6-(1-fluoro-1-methyl-ethyl)-1,3,5-triazine-2,4-diamine]",herbicidal activity,"[1]; pre-emergence, 125 g/ha",100%
same,herbicidal activity,"[2]; pre-emergence, 125 g/ha",100%
same,herbicidal activity,"[3]; pre-emergence, 125 g/ha",100%
"COc1c(Cl)cc(F)c(F)c1Nc1nc(N)nc(C(C)(C)F)n1 [Example 7, N4-(5-Chloro-2,3-difluoro-6-methoxy-phenyl)-6-(1-fluoro-1-methyl-ethyl)-1,3,5-triazine-2,4-diamine]",herbicidal activity,"[1]; pre-emergence, 125 g/ha",100%
same,herbicidal activity,"[2]; pre-emergence, 125 g/ha",100%
same,herbicidal activity,"[3]; pre-emergence, 125 g/ha",100%
COc1c(Br)cc(Br)c(F)c1Nc1nc(N)nc(C(C)(C)F)n1 [Example 8],herbicidal activity,"[1]; pre-emergence, 125 g/ha",100%
same,herbicidal activity,"[2]; pre-emergence, 125 g/ha",100%
same,herbicidal activity,"[3]; pre-emergence, 125 g/ha",100%
COc1c(Br)cc(Br)c(F)c1Nc1nc(N)nc(C2(F)CCCCC2)n1 [Example 9],herbicidal activity,"[4]; pre-emergence, 250 g/ha",100%
same,herbicidal activity,"[2]; pre-emergence, 250 g/ha",95%
same,herbicidal activity,"[3]; pre-emergence, 250 g/ha",90%
COc1c(Cl)cc(F)c(F)c1Nc1nc(N)nc(C2(F)CCCCC2)n1 [Example 10],herbicidal activity,"[4]; pre-emergence, 250 g/ha",100%
same,herbicidal activity,"[2]; pre-emergence, 250 g/ha",100%
same,herbicidal activity,"[3]; pre-emergence, 250 g/ha",100%
CC#CCOc1c(Br)cc(F)c(F)c1Nc1nc(N)nc(C2(F)CCCC2)n1 [Example 16],herbicidal activity,"[1]; pre-emergence, 250 g/ha",100%
same,herbicidal activity,"[4]; pre-emergence, 250 g/ha",100%
same,herbicidal activity,"[3]; pre-emergence, 250 g/ha",100%
C#CCOc1c(Br)cc(F)c(F)c1Nc1nc(N)nc(C(C)(C)F)n1 [Example 17],herbicidal activity,"[1]; pre-emergence, 250 g/ha",100%
same,herbicidal activity,"[4]; pre-emergence, 250 g/ha",100%
same,herbicidal activity,"[3]; pre-emergence, 250 g/ha",100%
CC#CCOc1c(Cl)cc(F)c(F)c1Nc1nc(N)nc(C(C)(C)F)n1 [Example 18],herbicidal activity,"[1]; pre-emergence, 62,5 g/ha",100%
same,herbicidal activity,"[4]; pre-emergence, 62,5 g/ha",100%
same,herbicidal activity,"[3]; pre-emergence, 62,5 g/ha",100%
CCOc1c(Br)cc(F)c(F)c1Nc1nc(N)nc(C(C)(C)F)n1 [Example 19],herbicidal activity,"[1]; pre-emergence, 62,5 g/ha",100%
same,herbicidal activity,"[4]; pre-emergence, 62,5 g/ha",100%
same,herbicidal activity,"[3]; pre-emergence, 62,5 g/ha",100%
CCC#CCOc1c(Br)cc(F)c(F)c1Nc1nc(N)nc(C(C)(C)F)n1 [Example 20],herbicidal activity,"[1]; pre-emergence, 62,5 g/ha",100%
same,herbicidal activity,"[4]; pre-emergence, 62,5 g/ha",100%
same,herbicidal activity,"[3]; pre-emergence, 62,5 g/ha",100%
CC(C)(F)c1nc(N)nc(Nc2c(F)c(F)cc(Br)c2OCC#CC2CC2)n1 [Example 29],herbicidal activity,"[4]; pre-emergence, 31 g/ha",100%
same,herbicidal activity,"[2]; pre-emergence, 31 g/ha",100%
same,herbicidal activity,"[3]; pre-emergence, 31 g/ha",100%
CC(C)(F)c1nc(N)nc(Nc2c(F)c(F)cc(Br)c2OC(F)F)n1 [Example 31],herbicidal activity,"[1]; pre-emergence, 250 g/ha",100%
same,herbicidal activity,"[4]; pre-emergence, 250 g/ha",100%
same,herbicidal activity,"[3]; pre-emergence, 250 g/ha",100%
"COc1c(F)cc(C)c(F)c1Nc1nc(N)nc(C(C)(C)F)n1 [Example 32, N4-(2,5-difluoro-6-methoxy-3-methyl-phenyl)-6-(1-fluoro-1-methyl-ethyl)-1,3,5-triazine-2,4-diamine]",herbicidal activity,"[1]; pre-emergence, 62,5 g/ha",100%
same,herbicidal activity,"[4]; pre-emergence, 62,5 g/ha",100%
same,herbicidal activity,"[3]; pre-emergence, 62,5 g/ha",100%
COc1c(Br)cc(F)c(F)c1Nc1nc(N)nc(C(C)(F)F)n1 [Example 50],herbicidal activity,"[4]; pre-emergence, 31 g/ha",100%
same,herbicidal activity,"[2]; pre-emergence, 31 g/ha",100%
same,herbicidal activity,"[3]; pre-emergence, 31 g/ha",80%
COc1c(C)cc(Br)c(F)c1Nc1nc(N)nc(C(C)(C)F)n1 [Example 51],herbicidal activity,"[4]; pre-emergence, 62 g/ha",100%
same,herbicidal activity,"[2]; pre-emergence, 62 g/ha",100%
same,herbicidal activity,"[3]; pre-emergence, 62 g/ha",100%
CC#CCOc1c(Br)cc(F)c(F)c1Nc1nc(N)nc(C2(F)CC2)n1 [Example 56],herbicidal activity,"[1]; pre-emergence, 62,5 g/ha",90%
same,herbicidal activity,"[2]; pre-emergence, 62,5 g/ha",100%
same,herbicidal activity,"[3]; pre-emergence, 62,5 g/ha",90%
CC#CCOc1c(Cl)cc(F)c(F)c1Nc1nc(N)nc(C2(F)CC2)n1 [Example 57],herbicidal activity,"[1]; pre-emergence, 31 g/ha",100%
same,herbicidal activity,"[2]; pre-emergence, 31 g/ha",100%
same,herbicidal activity,"[3]; pre-emergence, 31 g/ha",98%
CC#CCOc1c(Cl)cc(F)c(F)c1Nc1nc(N)nc(C2(F)CCCC2)n1 [Example 58],herbicidal activity,"[1]; pre-emergence, 62,5 g/ha",100%
same,herbicidal activity,"[2]; pre-emergence, 62,5 g/ha",100%
same,herbicidal activity,"[3]; pre-emergence, 62,5 g/ha",100%
COc1c(Cl)cc(Cl)c(F)c1Nc1nc(N)nc(C(C)(C)F)n1 [Example 59],herbicidal activity,"[1]; pre-emergence, 62,5 g/ha",95%
same,herbicidal activity,"[2]; pre-emergence, 62,5 g/ha",100%
same,herbicidal activity,"[3]; pre-emergence, 62,5 g/ha",100%
CC#CCOc1c(Br)cc(Br)c(F)c1Nc1nc(N)nc(C(C)(C)F)n1 [Example 64],herbicidal activity,"[1]; pre-emergence, 62 g/ha",100%
same,herbicidal activity,"[2]; pre-emergence, 62 g/ha",100%
same,herbicidal activity,"[3]; pre-emergence, 62 g/ha",100%
C#CCOc1c(Br)cc(Br)c(F)c1Nc1nc(N)nc(C(C)(C)F)n1 [Example 65],herbicidal activity,"[1]; pre-emergence, 62 g/ha",100%
same,herbicidal activity,"[2]; pre-emergence, 62 g/ha",100%
same,herbicidal activity,"[3]; pre-emergence, 62 g/ha",100%
COc1c(Br)cc(F)c(F)c1Nc1nc(N)nc(C2(F)CCCC2)n1 [Example 81],herbicidal activity,"[1]; pre-emergence, 62 g/ha",100%
same,herbicidal activity,"[2]; pre-emergence, 62 g/ha",100%
same,herbicidal activity,"[3]; pre-emergence, 62 g/ha",100%
